Measurements as given in ChEMBL document CHEMBL5113452, “Synthesis and biological evaluation of hybrids from optically active ring-opened 3-N-butylphthalide derivatives and 4-fluro-edaravone as potential anti-acute ischemic stroke agents” (Bioorg Med Chem, 2022).
Calls of active or inactive are those of the source. The calls are words filed in the database; no cut-off is given here.

How the values were obtained:
[1] = Prodrug conversion in Sprague-Dawley rat plasma assessed as MRT of metabolite S-NBP at 10 mg/kg, iv and measured upto 24 hrs by LC-MS/MS analysis; assay type: ADME, organism-based; settings: in vivo
[2] = Prodrug conversion in Sprague-Dawley rat plasma assessed as elimination rate constant of metabolite S-NBP at 10 mg/kg, iv and measured upto 24 hrs by LC-MS/MS analysis; assay type: ADME, organism-based; settings: in vivo
[3] = Prodrug conversion in Sprague-Dawley rat plasma assessed as C0 of metabolite 4-F-Eda at 10 mg/kg, iv and measured upto 24 hrs by LC-MS/MS analysis; assay type: ADME, organism-based; settings: in vivo
[4] = Metabolic stability in rat liver microsomes assessed as half life at 20 mM and measured upto 120 mins by HPLC analysis; assay type: ADME, Microsome
[5] = Prodrug conversion in Sprague-Dawley rat plasma assessed as Cmax of metabolite 4-F-Eda at 10 mg/kg, iv and measured upto 24 hrs by LC-MS/MS analysis; assay type: ADME, organism-based; parameters: time < 24 hrs, dose 10 mg/kg, route iv; settings: in vivo
[6] = Toxicity in transient middle cerebral artery occlusion induced ischemia stroke Sprague-Dawley rat model assessed as change in body weight at 10 mg/kg, iv and measured after 24 hrs; assay type: organism-based; settings: in vivo
[7] = Prodrug conversion in Sprague-Dawley rat plasma assessed as AUC (0-infinity) of metabolite S-NBP at 10 mg/kg, iv and measured upto 24 hrs by LC-MS/MS analysis; assay type: ADME, organism-based; parameters: dose 10 mg/kg, time < 24 hrs, route iv; settings: in vivo
[8] = Metabolic stability in rat plasma assessed as half life at 200 uM and measured upto 24 hrs by HPLC analysis; assay type: ADME, cell-free
[9] = Prodrug conversion in Sprague-Dawley rat plasma assessed as AUMC (0-infinity) of metabolite S-NBP at 10 mg/kg, iv and measured upto 24 hrs by LC-MS/MS analysis; assay type: ADME, organism-based; settings: in vivo
[10] = Prodrug conversion in Sprague-Dawley rat plasma assessed as Cmax of metabolite S-NBP at 10 mg/kg, iv and measured upto 24 hrs by LC-MS/MS analysis; assay type: ADME, organism-based; parameters: time < 24 hrs, dose 10 mg/kg, route iv; settings: in vivo
[11] = Prodrug conversion in Sprague-Dawley rat plasma assessed as AUC (0-t) of metabolite 4-F-Eda at 10 mg/kg, iv and measured upto 24 hrs by LC-MS/MS analysis; assay type: ADME, organism-based; parameters: dose 10 mg/kg, time < 24 hrs, route iv; settings: in vivo
[12] = Prodrug conversion in Sprague-Dawley rat plasma assessed as AUMC (0-infinity) of metabolite 4-F-Eda at 10 mg/kg, iv and measured upto 24 hrs by LC-MS/MS analysis; assay type: ADME, organism-based; settings: in vivo
[13] = Prodrug conversion in Sprague-Dawley rat plasma assessed as 4-F-Eda metabolite formation at 10 mg/kg, iv and measured upto 24 hrs by LC-MS/MS analysis; assay type: ADME, organism-based; settings: in vivo
Rattus norvegicus [14] = experiment: Neuroprotective activity against transient middle cerebral artery occlusion induced cerebral infraction Sprague-Dawley rat model assessed as decrease in brain edema at 10 mg/kg, iv and measured after 24 hrs; assay type: functional; parameters: scale not given: the % may be the effect or the level left
[15] = Prodrug conversion in Sprague-Dawley rat plasma assessed as S-NBP metabolite formation at 10 mg/kg, iv and measured upto 24 hrs by LC-MS/MS analysis; assay type: ADME, organism-based; settings: in vivo
[16] = Prodrug conversion in Sprague-Dawley rat plasma assessed as elimination rate constant of metabolite 4-F-Eda at 10 mg/kg, iv and measured upto 24 hrs by LC-MS/MS analysis; assay type: ADME, organism-based; settings: in vivo
[17] = Prodrug conversion in Sprague-Dawley rat plasma assessed as AUC (0-t) of metabolite S-NBP at 10 mg/kg, iv and measured upto 24 hrs by LC-MS/MS analysis; assay type: ADME, organism-based; parameters: time < 24 hrs, dose 10 mg/kg, route iv; settings: in vivo
[18] = Prodrug conversion in Sprague-Dawley rat plasma assessed as half life of metabolite S-NBP at 10 mg/kg, iv and measured upto 24 hrs by LC-MS/MS analysis; assay type: ADME, organism-based; settings: in vivo
[19] = Prodrug conversion in Sprague-Dawley rat plasma assessed as C0 of metabolite S-NBP at 10 mg/kg, iv and measured upto 24 hrs by LC-MS/MS analysis; assay type: ADME, organism-based; settings: in vivo
Rattus norvegicus [20] = experiment: Neuroprotective activity against transient middle cerebral artery occlusion induced ischemia stroke Sprague-Dawley rat model assessed as increase in neuro-fucntional score at 10 mg/kg, iv and measured after 24 hrs by longa's method; assay type: functional, organism-based
[21] = Prodrug conversion in Sprague-Dawley rat plasma assessed as volume of distribution at steady state of metabolite 4-F-Eda at 10 mg/kg, iv and measured upto 24 hrs by LC-MS/MS analysis; assay type: ADME, organism-based; settings: in vivo
[22] = Prodrug conversion in Sprague-Dawley rat plasma assessed as MRT of metabolite 4-F-Eda at 10 mg/kg, iv and measured upto 24 hrs by LC-MS/MS analysis; assay type: ADME, organism-based; settings: in vivo
[23] = Prodrug conversion in Sprague-Dawley rat plasma assessed as AUMC (0-t) of metabolite S-NBP at 10 mg/kg, iv and measured upto 24 hrs by LC-MS/MS analysis; assay type: ADME, organism-based; settings: in vivo
[24] = Prodrug conversion in Sprague-Dawley rat plasma assessed as AUC (0-infinity) of metabolite 4-F-Eda at 10 mg/kg, iv and measured upto 24 hrs by LC-MS/MS analysis; assay type: ADME, organism-based; parameters: dose 10 mg/kg, time < 24 hrs, route iv; settings: in vivo
[25] = Prodrug conversion in Sprague-Dawley rat plasma assessed as volume of distribution at steady state of metabolite S-NBP at 10 mg/kg, iv and measured upto 24 hrs by LC-MS/MS analysis; assay type: ADME, organism-based; settings: in vivo
[26] = Prodrug conversion in Sprague-Dawley rat plasma assessed as AUMC (0-t) of metabolite 4-F-Eda at 10 mg/kg, iv and measured upto 24 hrs by LC-MS/MS analysis; assay type: ADME, organism-based; settings: in vivo
[27] = Prodrug conversion in Sprague-Dawley rat plasma assessed as half life of metabolite 4-F-Eda at 10 mg/kg, iv and measured upto 24 hrs by LC-MS/MS analysis; assay type: ADME, organism-based; settings: in vivo
Rattus norvegicus [28] = experiment: Neuroprotective activity against transient middle cerebral artery occlusion induced cerebral infraction Sprague-Dawley rat model assessed as decrease in cerebral infraction volume at 10 mg/kg, iv and measured after 24 hrs by TTC staining based assay; assay type: functional; parameters: scale not given: the % may be the effect or the level left

Work on `CCCC[C@H](OC(C)=O)c1ccccc1C(=O)Oc1cc(C)nn1-c1ccc(F)cc1` yielded an MRT [1] of 4.45 h, a Kel [2] of 0.123 h⁻¹ and a C0 [3] of 8328 ng/mL. For the same molecule, the half-life [4] was 0.833 h, the Cmax [5] was 5569 ng/mL and the Activity [6] was “Non-Toxic”. The AUC [7] was 2819 ng·h/mL, the half-life at 200 µM [8] was 17 h and the AUMC [9] was 12474 hr.hr.ng/ml. The Cmax [10] was 3242 ng/mL, the AUCt [11] was 2958 ng·h/mL and the AUMC [12] was 5109 hr.hr.ng/ml. The Drug metabolism [13] was “Metabolite_Detected”, the Activity (Rattus norvegicus [14]) was 13.96% and the Drug metabolism [15] was “Metabolite_Detected”. It also gave a Kel [16] of 0.143 h⁻¹, an AUCt [17] of 2740 ng·h/mL and a t1/2 [18] of 5.69 h. The C0 [19] was 4653 ng/mL, the Activity (Rattus norvegicus [20]) was “Active” and the Vdss [21] was 6.18 L/kg. For the same molecule, the MRT [22] was 1.77 h, the AUMCt [23] was 9914 hr.hr.ng/ml and the AUC [24] was 2990 ng·h/mL. It also gave a Vdss [25] of 16.1 L/kg, an AUMCt [26] of 4095 hr.hr.ng/ml and a t1/2 [27] of 5.11 h. For the same molecule, the Activity (Rattus norvegicus [28]) was 77.85%.
